Tested on: MV-4-11 cells
Experiment: Gene expression microarray analysis (Affymetrix PrimeView) and GSEA
Format: cell-based, human
Set-up: RFU PODN (11730768_x_at) / Fold change /veh PODN (11730768_x_at) / RFU LINC00158 (11744669_a_at) / Fold change /veh LINC00158 (11744669_a_at) / RFU DUSP10 (11751237_a_at) / Fold change /veh DUSP10 (11751237_a_at) / RFU ID3 (11757404_x_at) / Fold change /veh ID3 (11757404_x_at) / RFU PLEKHG5 (11737974_s_at) / Fold change /veh PLEKHG5 (11737974_s_at) / RFU LRRC4B (11730491_at) / Fold change /veh LRRC4B (11730491_at) / RFU GIMAP4 (11747438_a_at) / Fold change /veh GIMAP4 (11747438_a_at) / RFU KRT8 (11758183_x_at) / Fold change /veh KRT8 (11758183_x_at) / RFU CNN1 (11734310_a_at) / Fold change /veh CNN1 (11734310_a_at) / RFU VPS37D (11726825_at) / Fold change /veh VPS37D (11726825_at) / RFU C10orf10 (11716522_x_at) / Fold change /veh C10orf10 (11716522_x_at) / RFU KIR2DL2 /// KIR2DL4 /// KIR2DL5A /// KIR2DL5B /// KIR2DS1 /// KIR2DS2 /// KIR2DS3 /// KIR2DS4 /// KIR3DL3 /// KIR3DL3 /// KIR3DS1 (11738374_at) / Fold change /veh KIR2DL2 /// KIR2DL4 /// KIR2DL5A /// KIR2DL5B /// KIR2DS1 /// KIR2DS2 /// KIR2DS3 /// KIR2DS4 /// KIR3DL3 /// KIR3DL3 /// KIR3DS1 (11738374_at) / RFU C1QL1 (11718748_at) / Fold change /veh C1QL1 (11718748_at) / RFU TMPRSS4 (11747572_a_at) / Fold change /veh TMPRSS4 (11747572_a_at) / RFU HAMP (11756126_x_at) / Fold change /veh HAMP (11756126_x_at) / RFU RNFT2 (11725882_a_at) / Fold change /veh RNFT2 (11725882_a_at) / RFU NR4A2 (11747474_a_at) / Fold change /veh NR4A2 (11747474_a_at) / RFU ABCC12 (11746883_a_at) / Fold change /veh ABCC12 (11746883_a_at) / RFU TMEM136 (11760407_x_at) / Fold change /veh TMEM136 (11760407_x_at) / RFU CLDN22 /// WWC2 (11732394_at) / Fold change /veh CLDN22 /// WWC2 (11732394_at) / RFU HLA-DPB1 (11760878_x_at) / Fold change /veh HLA-DPB1 (11760878_x_at) / RFU SPINT1 (11716480_a_at) / Fold change /veh SPINT1 (11716480_a_at) / RFU GAP43 (11754022_s_at) / Fold change /veh GAP43 (11754022_s_at) / RFU A4GNT (11735810_at) / Fold change /veh A4GNT (11735810_at) / RFU PRB3 (11715151_x_at) / Fold change /veh PRB3 (11715151_x_at) / RFU TUBB4B (11761932_at) / Fold change /veh TUBB4B (11761932_at) / RFU CAPN14 (11732068_a_at) / Fold change /veh CAPN14 (11732068_a_at) / RFU TMCC2 (11721928_a_at) / Fold change /veh TMCC2 (11721928_a_at) / RFU IRGQ (11745062_a_at) / Fold change /veh IRGQ (11745062_a_at) / RFU FAM174B (11720279_a_at) / Fold change /veh FAM174B (11720279_a_at) / RFU TMPRSS4 (11748680_a_at) / Fold change /veh TMPRSS4 (11748680_a_at) / RFU FAM212B (11763350_a_at) / Fold change /veh FAM212B (11763350_a_at) / RFU PLEKHG5 (11743358_a_at) / Fold change /veh PLEKHG5 (11743358_a_at) / RFU ZSCAN30 (11745921_a_at) / Fold change /veh ZSCAN30 (11745921_a_at) / RFU CMKLR1 (11741424_a_at) / Fold change /veh CMKLR1 (11741424_a_at) / RFU LOC101060620 /// MAPK8IP1 (11723275_at) / Fold change /veh LOC101060620 /// MAPK8IP1 (11723275_at) / RFU SPTSSB (11747773_x_at) / Fold change /veh SPTSSB (11747773_x_at) / RFU PRSS12 (11739890_at) / Fold change /veh PRSS12 (11739890_at) / RFU BIN1 (11741810_x_at) / Fold change /veh BIN1 (11741810_x_at) / RFU WNT11 (11732464_a_at) / Fold change /veh WNT11 (11732464_a_at) / RFU C10orf10 (11716521_a_at) / Fold change /veh C10orf10 (11716521_a_at) / RFU C5orf56 (11738089_at) / Fold change /veh C5orf56 (11738089_at) / RFU CYB561 (11721691_x_at) / Fold change /veh CYB561 (11721691_x_at) / RFU ANKRD19P (11752326_a_at) / Fold change /veh ANKRD19P (11752326_a_at) / RFU OR2T12 /// OR2T33 /// OR2T8 (11738714_s_at) / Fold change /veh OR2T12 /// OR2T33 /// OR2T8 (11738714_s_at) / RFU VCAN (11748164_a_at) / Fold change /veh VCAN (11748164_a_at) / RFU JSRP1 (11732532_at) / Fold change /veh JSRP1 (11732532_at) / RFU KRTAP10-11 (11738290_x_at) / Fold change /veh KRTAP10-11 (11738290_x_at) / RFU MYO3A (11730013_a_at) / Fold change /veh MYO3A (11730013_a_at) / RFU EBF3 (11725865_a_at) / Fold change /veh EBF3 (11725865_a_at) / RFU CAMK2N1 (11719241_x_at) / Fold change /veh CAMK2N1 (11719241_x_at) / RFU C5orf56 (11738088_a_at) / Fold change /veh C5orf56 (11738088_a_at) / RFU OLFML3 (11715873_a_at) / Fold change /veh OLFML3 (11715873_a_at) / RFU LOC100653217 /// NTM (11731650_a_at) / Fold change /veh LOC100653217 /// NTM (11731650_a_at) / RFU MAPK11 (11762145_a_at) / Fold change /veh MAPK11 (11762145_a_at) / RFU FIZ1 (11724087_x_at) / Fold change /veh FIZ1 (11724087_x_at) / RFU OASL (11726364_x_at) / Fold change /veh OASL (11726364_x_at) / RFU SOX15 (11748057_x_at) / Fold change /veh SOX15 (11748057_x_at) / RFU CD79A (11719716_a_at) / Fold change /veh CD79A (11719716_a_at) / RFU HIST1H1D (11736915_at) / Fold change /veh HIST1H1D (11736915_at) / RFU CASKIN2 (11723855_a_at) / Fold change /veh CASKIN2 (11723855_a_at) / RFU LOC730098 (11760151_x_at) / Fold change /veh LOC730098 (11760151_x_at) / RFU OR4N2 (11742367_at) / Fold change /veh OR4N2 (11742367_at) / RFU PRRT2 (11749266_a_at) / Fold change /veh PRRT2 (11749266_a_at) / RFU SNX32 (11753110_a_at) / Fold change /veh SNX32 (11753110_a_at) / RFU CDHR5 (11726645_a_at) / Fold change /veh CDHR5 (11726645_a_at) / RFU RCAN1 (11760418_a_at) / Fold change /veh RCAN1 (11760418_a_at) / RFU FAM167A (11723789_a_at) / Fold change /veh FAM167A (11723789_a_at) / RFU FAM26E (11764081_at) / Fold change /veh FAM26E (11764081_at) / RFU ISYNA1 (11749810_s_at) / Fold change /veh ISYNA1 (11749810_s_at) / RFU ACY1 (11761880_at) / Fold change /veh ACY1 (11761880_at) / RFU 11764098_at / Fold change /veh 11764098_at / RFU SAMD14 (11745864_x_at) / Fold change /veh SAMD14 (11745864_x_at) / RFU NPB (11741838_a_at) / Fold change /veh NPB (11741838_a_at) / RFU TMPRSS6 (11731388_a_at) / Fold change /veh TMPRSS6 (11731388_a_at) / RFU KRTAP10-2 (11738614_at) / Fold change /veh KRTAP10-2 (11738614_at) / RFU ARHGAP8 /// PRR5-ARHGAP8 (11727945_x_at) / Fold change /veh ARHGAP8 /// PRR5-ARHGAP8 (11727945_x_at) / RFU KRTAP5-7 /// NADSYN1 (11734609_at) / Fold change /veh KRTAP5-7 /// NADSYN1 (11734609_at) / RFU RASL12 (11751679_a_at) / Fold change /veh RASL12 (11751679_a_at) / RFU CDKN2B (11736163_a_at) / Fold change /veh CDKN2B (11736163_a_at) / RFU PRF1 (11729649_at) / Fold change /veh PRF1 (11729649_at) / RFU, ZNF638 /// ZNF638-IT1 / Fold change vs veh, ZNF638 /// ZNF638-IT1 / RFU, PANK3 / Fold change vs veh, PANK3 / RFU, SH3YL1 / Fold change vs veh, SH3YL1 / RFU, ZEB2 / Fold change vs veh, ZEB2 / RFU, NRIP1 / Fold change vs veh, NRIP1 / RFU, PTTG1IP / Fold change vs veh, PTTG1IP / RFU, CAPN2 / Fold change vs veh, CAPN2 / RFU, MED14 / Fold change vs veh, MED14 / RFU, SNORA58 / Fold change vs veh, SNORA58 / RFU, C1orf63 / Fold change vs veh, C1orf63 / RFU, LRRFIP1 / Fold change vs veh, LRRFIP1 / RFU, NDUFAF7 / Fold change vs veh, NDUFAF7 / RFU, SLC12A2 / Fold change vs veh, SLC12A2 / RFU, IBTK / Fold change vs veh, IBTK / RFU, ESF1 / Fold change vs veh, ESF1 / Fold change vs veh, TMEM50B / RFU, TAOK1 / Fold change vs veh, TAOK1 / RFU, ACBD3 / Fold change vs veh, ACBD3 / RFU, TMA16 / Fold change vs veh, TMA16 / RFU, RWDD3 / Fold change vs veh, RWDD3 / RFU, BCAT1 / Fold change vs veh, BCAT1 / RFU, EDEM3 / Fold change vs veh, EDEM3 / RFU, TMEM33 / Fold change vs veh, TMEM33 / RFU, WDR75 / Fold change vs veh, WDR75 / RFU, AHCTF1 / Fold change vs veh, AHCTF1 / RFU, TFRC / Fold change vs veh, TFRC / RFU, ZDHHC17 / Fold change vs veh, ZDHHC17 / RFU, NOM1 / Fold change vs veh, NOM1 / RFU, ARL8B / Fold change vs veh, ARL8B / RFU, ZBTB11 / Fold change vs veh, ZBTB11 / RFU, TAMM41 / Fold change vs veh, TAMM41 / RFU, KIAA1704 /// LOC100996395 / Fold change vs veh, KIAA1704 /// LOC100996395 / RFU, ING1 / Fold change vs veh, ING1 / RFU, TRMT61B / Fold change vs veh, TRMT61B / RFU, FUBP3 / Fold change vs veh, FUBP3 / RFU, TP53 / Fold change vs veh, TP53 / RFU, TNKS2 / Fold change vs veh, TNKS2 / RFU, ZFP14 / Fold change vs veh, ZFP14 / RFU, ACTR2 / Fold change vs veh, ACTR2 / RFU, PPP3R1 / Fold change vs veh, PPP3R1 / RFU, PIK3R1 / Fold change vs veh, PIK3R1 / RFU, HNRNPA1 / Fold change vs veh, HNRNPA1 / RFU, RNF170 / Fold change vs veh, RNF170 / RFU, ZNF28 / Fold change vs veh, ZNF28 / RFU, RNGTT / Fold change vs veh, RNGTT / RFU, OGT / Fold change vs veh, OGT / RFU, BRD1 / Fold change vs veh, BRD1 / RFU, MARS / Fold change vs veh, MARS / RFU, ZNF655 / Fold change vs veh, ZNF655 / RFU, FAHD1 / Fold change vs veh, FAHD1 / RFU, BDP1 / Fold change vs veh, BDP1 / RFU, LRRCC1 / Fold change vs veh, LRRCC1 / RFU, ARID1A / Fold change vs veh, ARID1A / RFU, ZNF146 / Fold change vs veh, ZNF146 / RFU, ZNF330 / Fold change vs veh, ZNF330 / RFU, GPN3 / Fold change vs veh, GPN3 / RFU, C9orf123 / Fold change vs veh, C9orf123 / RFU, N4BP2L2 / Fold change vs veh, N4BP2L2 / RFU, ARFIP1 / Fold change vs veh, ARFIP1 / RFU, FAM179B / Fold change vs veh, FAM179B / RFU, BCL10 / Fold change vs veh, BCL10 / RFU, UHRF1BP1L / Fold change vs veh, UHRF1BP1L / RFU, BET1 / Fold change vs veh, BET1 / RFU, CNOT2 / Fold change vs veh, CNOT2 / RFU, ZNF268 / Fold change vs veh, ZNF268 / Fold change vs veh, ZNF507 / RFU, DGCR2 / Fold change vs veh, DGCR2 / RFU, WDSUB1 / Fold change vs veh, WDSUB1 / Fold change vs veh, HSP90B1 /// MIR3652 / RFU, ADSS / Fold change vs veh, ADSS / RFU, GK / Fold change vs veh, GK / RFU, ZNF148 / Fold change vs veh, ZNF148 / RFU, TAF9 / Fold change vs veh, TAF9 / RFU, SLC1A5 / Fold change vs veh, SLC1A5 / RFU, SLMO2 / Fold change vs veh, SLMO2 / RFU, ABCC4 / Fold change vs veh, ABCC4 / RFU, LOC101060439 /// RAP1B / Fold change vs veh, LOC101060439 /// RAP1B / RFU, RFX7 / Fold change vs veh, RFX7 / RFU, GTPBP10 / Fold change vs veh, GTPBP10 / RFU, CNEP1R1 / Fold change vs veh, CNEP1R1 / RFU, BIVM-ERCC5 /// ERCC5 / Fold change vs veh, BIVM-ERCC5 /// ERCC5 / RFU, ILF3 / Fold change vs veh, ILF3 / RFU 11762660_at / Fold change /veh 11762660_at / RFU VCAN (11757783_s_at) / Fold change /veh VCAN (11757783_s_at) / RFU DDX43 (11728927_at) / Fold change /veh DDX43 (11728927_at) / RFU KRT8 (11758188_x_at) / Fold change /veh KRT8 (11758188_x_at) / RFU NKD1 (11759106_at) / Fold change /veh NKD1 (11759106_at) / RFU SRD5A1 (11742802_a_at) / Fold change /veh SRD5A1 (11742802_a_at) / RFU TPSAB1 /// TPSB2 (11721975_s_at) / Fold change /veh TPSAB1 /// TPSB2 (11721975_s_at) / RFU GSTM3 (11746129_a_at) / Fold change /veh GSTM3 (11746129_a_at) / RFU IL23R (11737362_x_at) / Fold change /veh IL23R (11737362_x_at) / RFU TMEM51 (11727254_a_at) / Fold change /veh TMEM51 (11727254_a_at) / RFU PIWIL2 (11732686_x_at) / Fold change /veh PIWIL2 (11732686_x_at) / RFU ORM1 (11744905_x_at) / Fold change /veh ORM1 (11744905_x_at) / RFU CCDC152 (11743942_at) / Fold change /veh CCDC152 (11743942_at) / RFU ECM1 (11717891_a_at) / Fold change /veh ECM1 (11717891_a_at) / RFU IL23R (11748794_a_at) / Fold change /veh IL23R (11748794_a_at) / RFU TNFAIP8L3 (11732012_x_at) / Fold change /veh TNFAIP8L3 (11732012_x_at) / RFU MBOAT4 (11741988_at) / Fold change /veh MBOAT4 (11741988_at) / RFU 11764193_at / Fold change /veh 11764193_at / RFU TMEM53 (11763286_at) / Fold change /veh TMEM53 (11763286_at) / RFU MAGEB2 (11727129_at) / Fold change /veh MAGEB2 (11727129_at) / RFU TMEM200A (11744735_a_at) / Fold change /veh TMEM200A (11744735_a_at) / RFU CCDC152 (11751479_a_at) / Fold change /veh CCDC152 (11751479_a_at) / RFU FAM211A (11726209_a_at) / Fold change /veh FAM211A (11726209_a_at) / RFU RGS16 (11746705_a_at) / Fold change /veh RGS16 (11746705_a_at) / RFU VCAN (11755009_s_at) / Fold change /veh VCAN (11755009_s_at) / RFU RHOB (11743442_s_at) / Fold change /veh RHOB (11743442_s_at) / RFU RGS16 (11720943_a_at) / Fold change /veh RGS16 (11720943_a_at) / RFU RGS16 (11720944_at) / Fold change /veh RGS16 (11720944_at) / RFU, VPS4B / Fold change vs veh, VPS4B / RFU, CREB1 / Fold change vs veh, CREB1 / RFU, DNAJC13 / Fold change vs veh, DNAJC13 / RFU, GNAQ / Fold change vs veh, GNAQ / RFU, CDK5R1 / Fold change vs veh, CDK5R1 / RFU, ZRANB3 / Fold change vs veh, ZRANB3 / RFU, CUL4A / Fold change vs veh, CUL4A / RFU, CCNY / Fold change vs veh, CCNY / RFU, UFL1 / Fold change vs veh, UFL1 / RFU, COG3 / Fold change vs veh, COG3 / RFU, DIAPH2 / Fold change vs veh, DIAPH2 / RFU, SKA2 / Fold change vs veh, SKA2 / RFU, AFF3 / Fold change vs veh, AFF3 / RFU, LMF1 / Fold change vs veh, LMF1 / RFU, IPO11 / Fold change vs veh, IPO11 / RFU, DFFB / Fold change vs veh, DFFB / RFU, FOXP1 / Fold change vs veh, FOXP1 / RFU, CARD8 / Fold change vs veh, CARD8 / RFU, STRN3 / Fold change vs veh, STRN3 / RFU, ADK / Fold change vs veh, ADK / RFU, RASSF2 / Fold change vs veh, RASSF2 / RFU, WIPF1 / Fold change vs veh, WIPF1 / RFU, LARP1B / Fold change vs veh, LARP1B / RFU, RASA1 / Fold change vs veh, RASA1 / RFU, RB1 / Fold change vs veh, RB1 / RFU, PPFIA1 / Fold change vs veh, PPFIA1 / RFU, MAT2A / Fold change vs veh, MAT2A / RFU, CCT5 / Fold change vs veh, CCT5 / RFU, WDR92 / Fold change vs veh, WDR92 / RFU, CUX1 / Fold change vs veh, CUX1 / RFU, TTC7A / Fold change vs veh, TTC7A / RFU, TMEM135 / Fold change vs veh, TMEM135 / RFU, DEPTOR / Fold change vs veh, DEPTOR / RFU, CPM / Fold change vs veh, CPM / RFU, DNAJB6 / Fold change vs veh, DNAJB6 / RFU, CACNA2D3 / Fold change vs veh, CACNA2D3 / RFU, DTX4 / Fold change vs veh, DTX4 / RFU, TFCP2 / Fold change vs veh, TFCP2 / RFU, GMCL1 /// GMCL1P1 / Fold change vs veh, GMCL1 /// GMCL1P1 / RFU, AEBP2 / Fold change vs veh, AEBP2 / RFU, SNHG1 /// SNORD22 /// SNORD25 /// SNORD26 /// SNORD27 /// SNORD28 /// SNORD29 /// SNORD31 / Fold change vs veh, SNHG1 /// SNORD22 /// SNORD25 /// SNORD26 /// SNORD27 /// SNORD28 /// SNORD29 /// SNORD31 / Fold change (Aza/veh), C12orf56 (ProbeSet 11735607_a_at) / Fold change (ACY-1035/veh), C12orf56 (ProbeSet 11735607_a_at) / Fold change (Aza/veh), FGFR1OP (ProbeSet 11751329_s_at) / Fold change (ACY-1035/veh), FGFR1OP (ProbeSet 11751329_s_at) / Fold change (Aza/veh), VPS36 (ProbeSet 11739960_a_at) / Fold change (ACY-1035/veh), VPS36 (ProbeSet 11739960_a_at) / RFU SYPL1 (11715823_x_at) / Fold change /veh SYPL1 (11715823_x_at) / RFU IGFBP7 (11715501_s_at) / Fold change /veh IGFBP7 (11715501_s_at) / RFU REEP3 (11722064_at) / Fold change /veh REEP3 (11722064_at) / RFU IGLL1 (11728026_x_at) / Fold change /veh IGLL1 (11728026_x_at): dose or concentration left out as unconfirmed
Conditions: ProbeSet 11734937_a_at; LIST B

Nc1ncn([C@@H]2O[C@H](CO)[C@@H](O)[C@H]2O)c(=O)n1 [azacitidine]
Fold change vs veh, CNOT2: 0.93
